Read-outs that look alike come from different tables or passages of the source.
Legend:
Type in all cases: cell-based
[1] = test system: human keratinocyte (HaCaT) cell line; assay: MTT cell viability on normal cell line HaCaT; conditions: 24 h, read-out: IC50 ± S.D. HaCaT
Procedure: (§1) DP and BEAS-2B were seeded into 96-well plates at densities of 1 × 10^4 cells per well, while HaCaT cells were seeded at densities of 5 × 10^3 cells per well. The cells were allowed to adhere for 24 h. Subsequently, the cells were treated with various concentrations of compounds 3a–3o, 4a, and 4b at 72 h for DP cells and at 24 h for HaCaT and BEAS-2B cells. After the treatment period, cells were incubated with 0.5 mg/ml of MTT for 2 h. The resulting MTT product was measured at 570 nm using a spectrophotometric microplate reader. Cell viability was calculated by comparing the optical density (OD) measurements to those of the untreated control, and the results were expressed as a percentage.

[2] = test system: non-tumorigenic bronchial epithelial (BEAS-2B) cell line; assay: MTT cell viability on normal cell line BEAS-2B; conditions: BEAS-2B normal cell line, 24 h, read-out: IC50 ± S.D. BEAS-2B
Procedure: as §1

[3] = test system: H460 non-small-cell lung cancer cell line; assay: cells; conditions: for IC50: H460, MTT, 72 h, read-out: IC50 ± S.D. H460
Procedure: (§2) The in vitro cytotoxicity of all the semisynthesized esters and their precursors against H292 and H460 human NSCLC cell lines was analyzed based on the mitochondrial dehydrogenase activity via the MTT assay[43] (Table 1). The compounds were tested at doses of 1–250 nM. Cisplatin and doxorubicin, which are the standard chemotherapeutic drugs for the treatment of NSCLC, were used as positive controls. […] However, the extended use of 1 is limited by the concerns for unwanted necrosis, which is an unprogrammed form of cell death caused by the presence of two quinone moieties. […] The IC50 values of the 5-O-ester derivatives 3a, 3b, 3d, 3h, 3i, and 3k were in the same range as the mother compound 1.
(§3) The in vitro cytotoxicity of compounds 3a–3o, 4a, and 4b was determined against the H292 and H460 NSCLC cell lines by the MTT colorimetric assay. Each compound was dissolved in DMSO to prepare a 10 mM stock solution. Both the H292 and H460 cells were cultured in RPMI 1640 medium supplemented with 2 mM L-glutamine, 10% FBS, and 100 units/mL of penicillin–streptomycin at 37 °C under 5% CO2. The NSCLC cells were trypsinized and seeded with a density of 5 × 10^3 cells/well in a 96-well plate, followed by overnight incubation. Serial dilutions of the test compounds ranging from 1 to 250 nM were prepared in the presence of DMSO (< 0.2% v/v). […] After incubation, formazan crystals were solubilized by adding 100 µL of DMSO, and their absorbance was measured at 570 nm by a spectrophotometric microtiter plate reader (PerkinElmer Victor 3 1420 Multilabel Plate Counter). Cell viability was calculated as the percentage of nontreated control cells. The mean IC50 values were obtained from three independent experiments. Each experiment was conducted in triplicate with at least five concentrations of the tested compounds. The GraphPad Prism software (version 5) was used to calculate the average IC50 and standard deviation (S.D.) values for each experiment. Cisplatin and doxorubicin were used as the positive controls, while 0.2% DMSO served as the negative control.

[4] = test system: H292 non-small-cell lung cancer cell line; assay: cells; conditions: for IC50: H292, MTT, 72 h, read-out: IC50 ± S.D. H292
Procedure: as §2, §3

[5] = test system: dermal papilla (DP) cell line; assay: MTT cell viability on normal cell line DP; conditions: 72 h
Procedure: as §1

| Compound | IC50 [1] | IC50 [2] | IC50 [3] | IC50 [4] | IC50 [5] | IC50 ([1]; Homo sapiens) | IC50 ([2]; Homo sapiens) | IC50 ([3]; Homo sapiens, NCI-H460) | IC50 ([4]; Homo sapiens, NCI-H292) | Reduction in cytotoxicity against H460 [3] | Reduction in cytotoxicity against H292 [4] |
| --- | --- | --- | --- | --- | --- | --- | --- | --- | --- | --- | --- |
| N.N.[Cl][Pt][Cl] [Cisplatin, reference compound] | 14300 nM | > 20000 nM | 3860 nM | 4230 nM | 10800 nM |  |  |  |  |  |  |
| CC=C(C)C(=O)OCC1c2c(c(O)c(C)c3c2OCO3)CC2C3C4=C(CC(C(C#N)N12)N3C)C(=O)C(C)=C(OC)C4=O (stereo not shown) [Compound 2, renieramycin T] |  |  |  |  | 51 ± 0.08 nM | 89.2 ± 4.29 nM | 163 ± 24.2 nM | 84 ± 3.63 nM | 72.8 ± 2.88 nM |  |  |
| CC=C(C)C(=O)OCC1c2c(c(OC(C)=O)c(C)c3c2OCO3)CC2C3C4=C(CC(C(C#N)N12)N3C)C(=O)C(C)=C(OC)C4=O (stereo not shown) [Compound 3a, 5-O-acetyl renieramycin T] |  |  |  |  | 11.7 ± 0.59 nM | 9.49 ± 2.12 nM | > 250 nM | 35.7 ± 2.11 nM | 43.4 ± 3 nM |  |  |
| C/C=C(/C)C(=O)OC[C@H]1c2c(c(OC(=O)CNC(=O)OC(C)(C)C)c(C)c3c2OCO3)C[C@H]2[C@H]3C4=C(C[C@@H]([C@H](C#N)N12)N3C)C(=O)C(C)=C(OC)C4=O [Compound 3c] |  |  |  |  | 5.35 ± 0.27 nM | 23.1 ± 1.38 nM | > 250 nM | 41.6 ± 4.15 nM | 39 ± 5.63 nM |  |  |
| C/C=C(/C)C(=O)OC[C@H]1c2c(c(OC(=O)[C@H](C)NC(=O)OC(C)(C)C)c(C)c3c2OCO3)C[C@H]2[C@H]3C4=C(C[C@@H]([C@H](C#N)N12)N3C)C(=O)C(C)=C(OC)C4=O [Compound 3d, 5-O-(N-Boc-L-alanine)-renieramycin T] |  |  |  |  | 25.8 ± 1.05 nM | 58.5 ± 6.68 nM | 232 ± 26.1 nM | 33 ± 1.55 nM | 39.5 ± 1.18 nM |  |  |
| C/C=C(/C)C(=O)OC[C@H]1c2c(c(OC(=O)[C@@H](NC(=O)OC(C)(C)C)C(C)C)c(C)c3c2OCO3)C[C@H]2[C@H]3C4=C(C[C@@H]([C@H](C#N)N12)N3C)C(=O)C(C)=C(OC)C4=O [Compound 3e] |  |  |  |  | 50 ± 1.49 nM | 80.2 ± 4.1 nM | > 250 nM | 76.1 ± 2.77 nM | 89.6 ± 5.03 nM |  |  |
| C/C=C(/C)C(=O)OC[C@H]1c2c(c(OC(=O)[C@H](Cc3ccccc3)NC(=O)OC(C)(C)C)c(C)c3c2OCO3)C[C@H]2[C@H]3C4=C(C[C@@H]([C@H](C#N)N12)N3C)C(=O)C(C)=C(OC)C4=O [Compound 3f] |  |  |  |  | 39.8 ± 9.88 nM | 61.2 ± 3.43 nM | 181 ± 12.1 nM | 50.7 ± 3.5 nM | 54.1 ± 4.78 nM |  |  |
| C/C=C(/C)C(=O)OC[C@H]1c2c(c(OC(=O)c3ccccn3)c(C)c3c2OCO3)C[C@H]2[C@H]3C4=C(C[C@@H]([C@H](C#N)N12)N3C)C(=O)C(C)=C(OC)C4=O [Compound 3g] |  |  |  |  | 35.2 ± 4.13 nM | 74.3 ± 6.88 nM | > 250 nM | 43.6 ± 1.36 nM | 51.5 ± 1.67 nM |  |  |
| C/C=C(/C)C(=O)OC[C@H]1c2c(c(OC(=O)c3ccncc3)c(C)c3c2OCO3)C[C@H]2[C@H]3C4=C(C[C@@H]([C@H](C#N)N12)N3C)C(=O)C(C)=C(OC)C4=O [Compound 3h] |  |  |  |  | 4.83 ± 2.18 nM | 53.8 ± 7.07 nM | 223 ± 23.1 nM | 35.6 ± 1.64 nM | 35.3 ± 1.09 nM |  |  |
| C/C=C(/C)C(=O)OC[C@H]1c2c(c(OC(=O)c3ccc4ccccc4n3)c(C)c3c2OCO3)C[C@H]2[C@H]3C4=C(C[C@@H]([C@H](C#N)N12)N3C)C(=O)C(C)=C(OC)C4=O [Compound 3i, 5-O-(2-quinolinecarbonyl) ester] |  |  |  |  | 8.77 ± 1.94 nM | 28 ± 3.76 nM | 151 ± 19 nM | 43.3 ± 4.29 nM | 36.5 ± 1.82 nM |  |  |
| C/C=C(/C)C(=O)OC[C@H]1c2c(c(OC(=O)c3cnc4ccccc4c3)c(C)c3c2OCO3)C[C@H]2[C@H]3C4=C(C[C@@H]([C@H](C#N)N12)N3C)C(=O)C(C)=C(OC)C4=O [Compound 3j, 5-O-(3-quinolinecarbonyl) ester] |  |  |  |  | 37.6 ± 0.47 nM | 109 ± 7.38 nM | > 250 nM | 86.1 ± 6.34 nM | 77.8 ± 5.79 nM |  |  |
| C/C=C(/C)C(=O)OC[C@H]1c2c(c(OC(=O)/C=C/c3cccnc3)c(C)c3c2OCO3)C[C@H]2[C@H]3C4=C(C[C@@H]([C@H](C#N)N12)N3C)C(=O)C(C)=C(OC)C4=O [Compound 3k] |  |  |  |  | 8.36 ± 2.31 nM | 9.64 ± 0.93 nM | 114 ± 13.2 nM | 38.8 ± 7.25 nM | 36.3 ± 2.06 nM |  |  |
| C/C=C(/C)C(=O)OC[C@H]1c2c(c(OC(=O)c3c[nH]c4ccccc34)c(C)c3c2OCO3)C[C@H]2[C@H]3C4=C(C[C@@H]([C@H](C#N)N12)N3C)C(=O)C(C)=C(OC)C4=O [Compound 3l] |  |  |  |  | 72.1 ± 3.01 nM | 109 ± 6.99 nM | > 250 nM | 57.9 ± 0.77 nM | 69.4 ± 1.61 nM |  |  |
| C/C=C(/C)C(=O)OC[C@H]1c2c(c(OC(=O)c3ccco3)c(C)c3c2OCO3)C[C@H]2[C@H]3C4=C(C[C@@H]([C@H](C#N)N12)N3C)C(=O)C(C)=C(OC)C4=O [Compound 3m] |  |  |  |  | 25.29 ± 0.24 nM | 42.1 ± 3.13 nM | > 250 nM | 42.9 ± 5.21 nM | 42.5 ± 3.84 nM |  |  |
| C/C=C(/C)C(=O)OC[C@H]1c2c(c(OC(=O)c3cccs3)c(C)c3c2OCO3)C[C@H]2[C@H]3C4=C(C[C@@H]([C@H](C#N)N12)N3C)C(=O)C(C)=C(OC)C4=O [Compound 3n, 5-O-(2-thiophenecarbonyl) ester] |  |  |  |  | 68.6 ± 6.25 nM | 139 ± 6.16 nM | > 250 nM | 123 ± 4.99 nM | 137 ± 6.3 nM |  |  |
| C/C=C(/C)C(=O)OC[C@H]1c2c(c(OC(=O)c3ccc[nH]3)c(C)c3c2OCO3)C[C@H]2[C@H]3C4=C(C[C@@H]([C@H](C#N)N12)N3C)C(=O)C(C)=C(OC)C4=O [Compound 3o] |  |  |  |  | 50 ± 7.81 nM | 65.2 ± 1.52 nM | 220 ± 29.7 nM | 58.3 ± 3.56 nM | 56.9 ± 2.66 nM |  |  |
| C/C=C(/C)C(=O)OC[C@H]1C2=C(C[C@H]3[C@H]4C5=C(C[C@@H]([C@H](C#N)N13)N4C)C(=O)C(C)=C(OC)C5=O)C(=O)C(C)=C(OC(=O)CC)C2=O [Compound 4a, 7-O-(propanoyl) ester derivative of renieramycin S] |  |  |  |  | 77.4 ± 9.9 nM | 230 ± 22.7 nM | > 250 nM | 164 ± 4.16 nM | 99.87 ± 0.91 nM | fivefold | 3 fold |
| C/C=C(/C)C(=O)OC[C@H]1C2=C(C[C@H]3[C@H]4C5=C(C[C@@H]([C@H](C#N)N13)N4C)C(=O)C(C)=C(OC)C5=O)C(=O)C(C)=C(OC(=O)c1cccnc1)C2=O [Compound 4b, 7-O-(3-pyridinecarbonyl) ester derivative of renieramycin S] |  |  |  |  | 67.5 ± 5.46 nM | 192 ± 22.2 nM | > 250 nM | 104 ± 2.2 nM | 100 ± 1.59 nM | fivefold | 3 fold |

Reference: article PMC10700347, “Semisynthesis of 5-O-ester derivatives of renieramycin T and their cytotoxicity against non-small-cell lung cancer cell lines” (Scientific Reports, 2023)
